From patent US5508266A, “Gem-disubstituted amino acid derivatives” (Ciba-Geigy Corporation, priority 1994, dated 1996) come the findings set out here.

Experiment [1] addresses T1, angiotensin converting enzyme (Rattus norvegicus, UniProt P47820).
T1 construct: from tissue; host or cells: whole animal: male, normotensive rats
T1 sequence (P47820 36-1313): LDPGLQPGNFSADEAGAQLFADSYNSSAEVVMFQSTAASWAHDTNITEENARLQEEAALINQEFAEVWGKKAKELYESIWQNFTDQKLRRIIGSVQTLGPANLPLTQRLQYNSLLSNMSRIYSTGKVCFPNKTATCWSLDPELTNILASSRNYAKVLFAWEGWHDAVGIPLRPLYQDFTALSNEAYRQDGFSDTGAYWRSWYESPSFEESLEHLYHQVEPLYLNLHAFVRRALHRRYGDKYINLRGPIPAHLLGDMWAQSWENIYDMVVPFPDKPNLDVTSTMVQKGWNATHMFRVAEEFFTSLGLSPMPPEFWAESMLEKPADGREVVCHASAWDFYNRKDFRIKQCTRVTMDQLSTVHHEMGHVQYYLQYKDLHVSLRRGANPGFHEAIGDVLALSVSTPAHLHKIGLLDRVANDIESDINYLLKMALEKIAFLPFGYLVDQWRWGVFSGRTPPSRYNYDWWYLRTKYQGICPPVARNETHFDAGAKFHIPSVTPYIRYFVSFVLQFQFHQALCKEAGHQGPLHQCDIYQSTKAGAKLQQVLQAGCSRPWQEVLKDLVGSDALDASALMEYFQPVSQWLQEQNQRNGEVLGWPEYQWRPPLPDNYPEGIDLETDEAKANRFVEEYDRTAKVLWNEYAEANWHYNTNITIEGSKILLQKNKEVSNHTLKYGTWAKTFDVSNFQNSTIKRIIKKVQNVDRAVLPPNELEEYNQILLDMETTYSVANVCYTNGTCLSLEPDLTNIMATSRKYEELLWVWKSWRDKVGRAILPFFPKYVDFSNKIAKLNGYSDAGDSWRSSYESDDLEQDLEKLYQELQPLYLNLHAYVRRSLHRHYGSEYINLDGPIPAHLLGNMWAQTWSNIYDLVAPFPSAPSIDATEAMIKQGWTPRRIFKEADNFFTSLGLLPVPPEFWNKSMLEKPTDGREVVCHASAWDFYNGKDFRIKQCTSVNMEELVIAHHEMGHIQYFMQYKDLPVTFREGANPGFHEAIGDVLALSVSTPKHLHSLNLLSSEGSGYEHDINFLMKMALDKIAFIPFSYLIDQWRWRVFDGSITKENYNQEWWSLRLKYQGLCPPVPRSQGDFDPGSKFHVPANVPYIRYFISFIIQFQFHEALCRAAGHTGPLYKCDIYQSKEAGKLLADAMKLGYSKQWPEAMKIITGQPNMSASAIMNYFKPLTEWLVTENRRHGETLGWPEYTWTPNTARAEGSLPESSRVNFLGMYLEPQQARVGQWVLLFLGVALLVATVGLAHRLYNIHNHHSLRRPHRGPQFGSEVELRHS
In words: Inhibition of angiotensin I induced pressor response in normotensive rats. The format is in vivo. Conditions: 10 mg/Kg i.v., male normotensive anesthetized rats, 300 ng/kg angiotensin I i.v. challenge. How it is done: The in vivo test for intravenously administered compounds is performed with male, normotensive rats, which are anesthetized with sodium metofan. A femoral artery and femoral vein are cannulated respectively for direct blood pressure measurement on i.v. administration of angiotensin I and i.v. or p.o. administration of a compound of this invention. After the basal blood pressure is stabilized, pressor responses to 3 challenges of 300 ng/kg angiotensin I i.v., at 15 minute intervals, are obtained. Such pressure responses are usually again obtained at 15, 30, 60 and 90 minutes, and then every hour up to 6 hours after i.v. or p.o. administration of the compound to be tested, and compared with the initial responses. Any observed decrease of said pressor response is an indication of Angiotensin I converting enzyme inhibition.

Experiment [2] has as its target T2, neutral endopeptidase (NEP, EC 3.4.24.11) (Rattus norvegicus, UniProt P07861).
T2 construct: 4.2 μg of protein (rat kidney cortex membranes prepared by method of Maeda et at, 1983); from tissue; host or cells: rat kidney cortex membranes
T2 sequence (P07861 1-750): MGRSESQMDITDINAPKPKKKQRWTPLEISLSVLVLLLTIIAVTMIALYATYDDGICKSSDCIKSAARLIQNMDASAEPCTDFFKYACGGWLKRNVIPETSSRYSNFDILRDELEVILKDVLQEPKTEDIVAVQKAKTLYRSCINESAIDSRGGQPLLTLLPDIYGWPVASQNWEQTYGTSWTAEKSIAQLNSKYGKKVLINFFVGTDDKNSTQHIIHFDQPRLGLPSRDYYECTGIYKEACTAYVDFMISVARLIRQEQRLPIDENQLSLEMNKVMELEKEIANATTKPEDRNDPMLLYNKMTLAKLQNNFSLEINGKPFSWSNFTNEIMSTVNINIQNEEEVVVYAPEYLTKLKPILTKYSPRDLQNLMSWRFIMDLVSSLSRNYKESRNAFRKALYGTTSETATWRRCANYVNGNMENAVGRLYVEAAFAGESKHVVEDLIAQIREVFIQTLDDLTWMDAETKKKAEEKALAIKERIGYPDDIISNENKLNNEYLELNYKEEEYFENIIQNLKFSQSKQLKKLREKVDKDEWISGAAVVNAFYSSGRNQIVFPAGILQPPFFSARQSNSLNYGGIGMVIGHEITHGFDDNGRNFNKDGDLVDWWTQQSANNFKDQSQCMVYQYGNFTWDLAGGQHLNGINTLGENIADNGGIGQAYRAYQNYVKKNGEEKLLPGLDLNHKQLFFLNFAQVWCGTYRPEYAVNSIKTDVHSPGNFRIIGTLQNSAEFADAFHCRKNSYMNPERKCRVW
As to the kind of experiment: GAAP in vitro assay of neutral endopeptidase (rat kidney cortex membranes). The conditions noted are these: substrate glutaryl-Ala-Ala-Phe-2-naphthylamide 500 μM, pH 7.4 at 25° C. The format is biochemical. How it is done: In vitro testing is most appropriate for the free carboxylic acids of the invention. The test compound is dissolved in dimethyl sulfoxide, ethanol, or 0.25M sodium bicarbonate solution, and the solution is diluted with buffer to the desired concentration.
The in vitro inhibition of neutral endopeptidase (NEP, EC 3.4.24.11) can be determined as follows:
Neutral endopeptidase 3.4.24.11 activity is determined by the hydrolysis of the substrate glutaryl-Ala-Ala-Phe-2-naphthylamide (GAAP) using a modified procedure of Orlowski and Wilk (1981). The incubation mixture (total volume 125 μl) contains 4.2 μg of protein (rat kidney cortex membranes prepared by method of Maeda et at, 1983), 50 mM tris buffer, pH 7.4 at 25° C., 500 μM substrate (final concentration), and leucine aminopeptidase M (2.5 μg). The mixture is incubated for 10 minutes at 25° C. and 100 μl of fast garnet (250 μg fast garnet/ml of 10% Tween 20 in 1M sodium acetate, pH 4.2) is added. Enzyme activity is measured spectrophotometrically at 540 nm. One unit of NEP 24.11 activity is defined as 1 nmol of 2-naphthylamine released per minute at 25° C. at pH 7.4. IC50 values are determined, i.e. the concentration of test compound required for 50% inhibition of the release of 2-naphthylamine.

In general, IC50 refers to the concentration at which inhibition is half-maximal. High values mean a need for much substance, low ones inhibition by little substance. Turning to `CC(C)[C@H](S)C(=O)NC(C)(C)C(=O)N[C@@H](Cc1ccc(O)cc1)C(=O)O` [Example 2, N-[2-(2(S)-mercapto-3-methyl-1-oxobutylamino)-2-methyl-1-oxopropyl]-L-tyrosine], in experiment [1], the “duration of inhibition of the Angiotensin I induced pressor response” value stood at 6 h. Further, the IC50 in experiment [2] was ~9.2 nM.
